# ChEMBL document CHEMBL1201862, “PubChem BioAssay data set” (2004)
#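 Cells were grown in 96-well plates and exposed to each compound for 48 hours at five concentrations; endpoints were interpolated linearly between bracketing concentrations, or set to the highest concentration if not reached. GI50 = concentration required for 50% inhibition of growth.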 Calls of active or inactive are those of the source. Rule as the data show it: active = GI50 up to about 1.1 µM and inactive = higher.
# How the values were obtained:
# Assay in all cases: DTP human tumour cell line panel, 48 h
# OVCAR-5 = system: OVCAR-5
# COLO 205 = system: COLO 205
# SW-620 = system: SW-620
# HCC 2998 = system: HCC 2998
# SK-MEL-5 = system: SK-MEL-5
# PC-3 = system: PC-3
# HCT-116 = system: HCT-116
# SR = system: SR
# NCI-H23 = system: NCI-H23
# CCRF-CEM = system: CCRF-CEM
# OVCAR-3 = system: OVCAR-3
# MDA-MB-435 = system: MDA-MB-435
# NCI-H460 = system: NCI-H460
# HCT-15 = system: HCT-15
# SK-OV-3 = system: SK-OV-3
# SF-268 = system: SF-268
# Hs-578T = system: Hs-578T
# LOX IMVI = system: LOX IMVI
# HOP-62 = system: HOP-62
# Malme-3M = system: Malme-3M
Compound,GI50 (OVCAR-5),GI50 (COLO 205),GI50 (SW-620),GI50 (HCC 2998),GI50 (SK-MEL-5),GI50 (PC-3),GI50 (HCT-116),GI50 (SR),GI50 (NCI-H23),GI50 (CCRF-CEM),GI50 (OVCAR-3),GI50 (MDA-MB-435),GI50 (NCI-H460),GI50 (HCT-15),GI50 (SK-OV-3),GI50 (SF-268),GI50 (Hs-578T),GI50 (LOX IMVI),GI50 (HOP-62),GI50 (Malme-3M)
C=C(CN(C)C)C(=O)c1cc(C)ccc1C,14.8 µM (inactive),1.58 µM (inactive),1.82 µM (inactive),15.8 µM (inactive),13.3 µM (inactive),14.1 µM (inactive),4.7 µM (inactive),0.726 µM (active),11.4 µM (inactive),0.345 µM (active),5.33 µM (inactive),8.45 µM (inactive),19.9 µM (inactive),4.13 µM,18.4 µM (inactive),20.3 µM (inactive),28.7 µM (inactive),4.84 µM (inactive),18.7 µM (inactive),2.5 µM (inactive)
CC1=NN(c2cccc(Cl)c2)C2(C1)SCC(=O)N2c1nc2ccccc2s1 (stereo not given),37 µM (inactive),18.1 µM (inactive),32.6 µM (inactive),17.9 µM (inactive),17.5 µM (inactive),23.3 µM (inactive),17.9 µM (inactive),17.9 µM (inactive),29.2 µM (inactive),21.8 µM (inactive),16.2 µM (inactive),25 µM (inactive),21.6 µM (inactive),33.2 µM,21.6 µM (inactive),31.2 µM (inactive),41.1 µM (inactive),20.2 µM (inactive),19.4 µM (inactive),34.3 µM (inactive)
CCSSCS(C)(=O)=O,53.1 µM (inactive),6.4 µM (inactive),5.05 µM (inactive),18.9 µM (inactive),32.7 µM (inactive),40 µM (inactive),23.6 µM (inactive),12.9 µM (inactive),32.9 µM (inactive),3.9 µM (inactive),26.5 µM (inactive),22.6 µM (inactive),33.5 µM (inactive),8.02 µM,56.6 µM (inactive),44.5 µM (inactive),43.5 µM (inactive),34.8 µM (inactive),39.3 µM (inactive),77.3 µM (inactive)
